In patent US20220370451A1, “INHIBITORS OF HUMAN IMMUNODEFICIENCY VIRUS REPLICATION” (VIIV HEALTHCARE UK ( No. 5) LIMITED, priority 2019, published 2022):
Read-outs that look alike come from different tables or passages of the source.

Legend:
Type in all cases: cell-based
[1] = test system: uninfected MT2 cells; assay: Compound cytotoxicity, XTT-based colorimetric assay
Protocol: (§1) Compound cytotoxicity and the corresponding CC50 values were determined using the same protocol as described in the antiviral assay except that uninfected cells were used. Cytotoxicity was assessed on day 4 in uninfected MT2 cells by using a XTT (2,3-bis[2-Methoxy-4-nitro-5-sulfophenyl]-2H-tetrazolium-5-carboxyanilide inner salt)-based colorimetric assay (Sigma-Aldrich, St Louis, Mo.).

[2] = test system: recombinant NL4-3 virus; assay: HIV cell culture assay (luciferase reporter antiviral activity)
Protocol: HIV cell culture assay—MT=2 cells, 293T cells and the proviral DNA clone of NL4-3 virus were obtained from the NIH AIDS Research and Reference Reagent Program. MT=2 cells were propagated in RPMI 1640 media supplemented with 10% heat inactivated fetal bovine serum (FBS), […] penicillin G and up to 100 units/mL streptomycin. The 293T cells were propagated in DMEM media supplemented with 10% heat inactivated FBS, […] penicillin G and […] streptomycin. A recombinant NL4-3 proviral clone, in which a section of the nef gene was replaced with the Renilla luciferase gene, was used to make the reference virus used in these studies. The recombinant virus was prepared through transfection of the recombinant NL4-3 proviral clone into 293T cells using Transit-293 Transfection Reagent from Mirus Bio LLC (Madison, Wis.). Supernatent was harvested after 2-3 days and the amount of virus present was titered in MT=2 cells using luciferase enzyme activity as a marker by measuring luciferase enzyme activity. Luciferase was quantitated using the EnduRen Live Cell Substrate from Promega (Madison, Wis.). Antiviral activities of compounds toward the recombinant virus were quantified by measuring luciferase activity in MT=2 cells infected for 4-5 days with the recombinant virus in the presence of serial dilutions of the compound.
The 50% effective concentration (EC50) was calculated by using the exponential form of the median effect equation where (Fa)=1/[1+(ED50/drug conc.)m] (Johnson V A, Byington RT. Infectivity Assay. In Techniques in HIV Research. ed. Aldovini A, Walker B D. 71-76. New York: Stockton Press.1990). The 50% inhibitory concentration (EC50) was calculated by using the exponential form of the median effect equation where percent inhibition=1/[1+(EC50/drug concentration)m], where m is a parameter that reflects the slope of the concentration-response curve.

[3] = Compound cytotoxicity, XTT-based colorimetric assay; conditions: human; uninfected MT2 cells, day 4, XTT
Protocol: as §1

[4] = Human immunodeficiency virus 1, NL43, MT2

SMILES | CC50 [1] [nM] | EC50 ([2]; MT-2 cells infected for 4-5 days with recombinant NL4-3 Renilla luciferase virus, read-out: EC50) [nM] | CC50 at 4 days [3] [nM] | EC50 [2, 4] [nM]
Cc1nccnc1-c1ccc2c(=O)n(-c3ccc(Cl)c4c(NS(C)(=O)=O)nn(C)c34)c([C@H](Cc3cc(F)cc(F)c3)NC(=O)Cc3cn(C(C)C)c4ccccc34)nc2c1 [Example 8, (S)-N-(1-((3P)-3-(4-chloro-1-methyl-3-(methylsulfonamido)-1H-indazol-7-yl)-7-(3-methylpyrazin-2-yl)-4-oxo-3,4-dihydroquinazolin-2-yl)-2-(3,5-difluorophenyl)ethyl)-2-(1-isopropyl-1H-indol-3-yl)acetamide] | > 500 | 0.45 | – | –
Cc1nccnc1-c1ccc2c(=O)n(-c3ccc(C)c4c(NS(C)(=O)=O)nn(C)c34)c(C(Cc3cc(F)cc(F)c3)NC(=O)Cn3nc(C(F)F)c4c3C(F)(F)[C@@H]3C[C@H]43)nc2c1 (stereo partly drawn) [Example 6, 2-((3bS,4aR)-3-(difluoromethyl)-5,5-difluoro-3b,4,4a,5-tetrahydro-1H-cyclopropa[3,4]cyclopenta[1,2-c]pyrazol-1-yl)-N-((S)-2-(3,5-difluorophenyl)-1-(3-(1,4-dimethyl-3-(methylsulfonamido)-1H-indazol-7-yl)-(3P)-7-(3-methylpyrazin-2-yl)-4-oxo-3,4-dihydroquinazolin-2-yl)ethyl)acetamide] | – | – | > 500 | 0.056
CC(C)[C@@H](C(=O)N[C@@H](Cc1cc(F)cc(F)c1)c1nc2nc(-c3ccccc3F)ccc2c(=O)n1-c1ccc(Cl)c2c(NS(C)(=O)=O)nn(CC(F)(F)F)c12)n1ccc(C2CC2)n1 (atropisomer, axis not shown; (P)) [Example 23, N-((S)-1-((3P)-3-(4-chloro-3-(methylsulfonamido)-1-(2,2,2-trifluoroethyl)-1H-indazol-7-yl)-7-(2-fluorophenyl)-4-oxo-3,4-dihydropyrido[2,3-d]pyrimidin-2-yl)-2-(3,5-difluorophenyl)ethyl)-2-(3-cyclopropyl-1H-pyrazol-1-yl)-3-methylbutanamide] | – | – | > 500 | 0.21
